Reference: patent EP0081321A1, “2-Aminophenol derivatives” (ONO PHARMACEUTICAL CO., LTD., priority 1981, dated 1983)
Counter-ions that a name gives are not always drawn.

Columns and labels:
mice = experiment: acute toxicity by intravenous injection; format: in vivo; conditions: intravenous injection to tail vein, doses of 30 mg/Kg
Protocol: On the other hand, all extent of the compounds of the present invention were confirmed that their acute toxicities were more than 30 mg/Kg by intravenous injection. Therefore, the compounds of the present invention may be considered to be sufficiently safe and suitable for medical use.

cyclooxygenase = experiment: standard assay system using polymorphonuclear leukocytes, HHT or TXB2 production; format: cell-based; conditions: polymorphonuclear leukocytes from guinea pig (whole cells), [1-14C] arachidonic acid, 37°C, 5 minutes; production of HHT or TXB2; read-out: concentrations for 50% inhibitions on cyclooxygenase
Protocol: Therefore, it is comfirmed that the compound (a) inhibits both enzymes at the same time at a very low concentration, and that the compounds (b), (c) and (d) inhibit 5-lipoxygenase slightly specifically at a very low concentration.
The experiments for screening using polymorphonuclear leukocytes were carried out as follows: The reaction mixture (0.1 ml) containing 5 µmole of potassium phosphase at pH 7.4, 0.1 µmole of calcium chloride, polymorphonuclear leukocytes prepared from guinea pigs (4 x 10^7 cells) and test compound was preincubated for 5 minutes at 37°C. The reaction was started by the addition of [1-^14C] arachidonic acid (2.2 x 10^3 dpm, 1.8 pmole), followed by the incubation at 37°C for 5 minutes. The reaction was terminated by the addition of 0.3 ml of a mixture of ether/methanol/lM citric acid (30/4/1). The organic phase (20 µl) was applied to silica gel plate. Thin layer chromatography was performed to separate each product with solvent system of ether/petroleum ether/acetic acid (85/15/0.1).
Activities of 5-lipoxygenase and cyclooxygenase were calculated from the measurements of the productions of 5-HETE, and 12L-hydroxy-5, 8, 10-[…] acid (i.e. HHT) or thromboxane B2 (i.e. TXB2) respectively. [it has been known that HHT and TXB2 were the last products of the system concerning cyclooxygenase in the arachidonate cascade.] The concentrations for 50% inhibitions on 5-lipoxygenase and on cyclooxygenase were evaluated by using the concentrations of compounds of the present invention required 50% inhibitions on the productions of 5-HETE, and HHT or TXB2.

| SMILES | dead cases in test of acute toxicity (mice) | IC50 (cyclooxygenase) [nM] |
| --- | --- | --- |
| CCOC(=O)/C=C/c1cc(Cl)cc(N)c1O.Cl [Example 1(a), 2-Amino-4-chloro-6-[2-ethoxycarbonyl-(1E)-vinyl]phenol hydrochloride] | no dead case in 21 cases |  |
| CCOC(=O)/C=C/C=C/c1cc(Cl)cc(N)c1O [Example 1(b), 2-Amino-4-chloro-6-[4-ethoxycarbonyl-(lE, 3E)-butadienyl]phenol hydrochloride] | no dead case in 21 cases |  |
| CCOC(=O)/C=C/c1ccc(O)c(N)c1 [Example 1(d), 2-Amino-4-[2-ethoxycarbonyl-(1E)-vinyl]-phenol hydrochloride] |  | 2200 |
| COC(=O)/C=C/c1cc(N)c(O)c(OC)c1.Cl [Example 1(e), 2-Amino-6-methoxy-4-[2-methoxycarbonyl-(1E)-vinyl]phenol hydrochloride] | no dead case in 21 cases |  |
| Nc1cc(/C=C/C(=O)OCc2ccc(-c3ccccc3)cc2)ccc1O [Example 1(h), 2-Amino-4-[2-[4-biphenylmethbxycarbonyl]-(1E)-vinyl]-phenol] |  | 10000 |
| CCOC(=O)/C=C/c1cc(Sc2ccccc2)cc(N)c1O [Example 1(j), 2-Amino-6-[2-ethoxycarbonyl-(lE)-vinyl]-4-phenylthiophenol hydrochloride] |  | 600 |
| CCOC(=O)/C=C/c1cccc(N)c1O [Example 1, 2-Amino-6-[2-ethoxycarbonyl-(lE)-vinyl]-phenol hydrochloride] |  | 1000 |
